Literature values, collected in patent publication US20090186081A1, “Disintegrating Loadable Tablets” (LifeCycle Pharma A/S, priority 2006, published 2009).
Structures can show the parent of a compound that is named as a salt. Where two headings read alike, the source gives them in different places.

How the values were obtained:
[1] = not given; remark: listed apart in the source
[2] = Table 1, Poorly-Soluble Drug Candidates
[3] = Table 2, Poorly-Soluble Drugs with Low Bioavailability

| SMILES | Solubility In Water [2] | Solubility In Water [3] | also measured |
| --- | --- | --- | --- |
| Cc1nnc2n1-c1ccc(Cl)cc1C(c1ccccc1)=NC2 [Alprazolam] | Insoluble |  |  |
| COc1ccc(CCN2CCC(Nc3nc4ccccc4n3Cc3ccc(F)cc3)CC2)cc1 [Astemizole] | Insoluble | Insoluble | Bioavailability ([1]; in words): Low-moderate |
| CC(=O)OC[C@H]1O[C@@H]([S-])[C@H](OC(C)=O)[C@@H](OC(C)=O)[C@@H]1OC(C)=O.CCP(CC)CC.[Au+] [Auranofin] |  | Slightly soluble | Bioavailability ([1]; in vivo): Low (15-25%) |
| CN1CCCC(n2nc(Cc3ccc(Cl)cc3)c3ccccc3c2=O)CC1 (stereo not shown) [Azelastine] | Insoluble |  |  |
| OC(CCN1CCCCC1)(c1ccccc1)C1CC2C=CC1C2 (stereo not shown) [Biperiden] |  | Sparingly soluble |  |
| C=CCC1(CC(C)C)C(=O)NC(=O)NC1=O [Butalbital] | Insoluble |  |  |
| NC(=O)N1c2ccccc2C=Cc2ccccc21 [Carbamazepine] | Insoluble |  |  |
| C[C@@](Cc1ccc(O)c(O)c1)(NN)C(=O)O [Carbidopa] | Slightly |  |  |
| CO/N=C(\C(=O)N[C@@H]1C(=O)N2C(C(=O)O)=C(COC(C)=O)CS[C@H]12)c1csc(N)n1 [Cefotaxime] | Sparingly |  |  |
| CN1CCC[C@@H]1CCO[C@](C)(c1ccccc1)c1ccc(Cl)cc1 [Clemastine fumarate] |  | Slightly soluble |  |
| CN1CCN(C2=Nc3cc(Cl)ccc3Nc3ccccc32)CC1 [Clozapine] | Slightly |  |  |
| CC1CC(OC(=O)C(O)c2ccccc2)CC(C)(C)C1 (stereo not shown) [Cyclandelate] |  | Insoluble | Bioavailability ([1]; in words): Low |
| C#C[C@]1(O)CC[C@H]2[C@@H]3CCC4=Cc5oncc5C[C@]4(C)[C@H]3CC[C@@]21C [Danazol] |  |  | Bioavailability ([1]; in words): Low |
| OCCN(CCO)c1nc(N2CCCCC2)c2nc(N(CCO)CCO)nc(N3CCCCC3)c2n1 [Dipyridamole] | Slightly |  |  |
| CC(CCc1ccc(O)cc1)NCCc1ccc(O)c(O)c1 (stereo not shown) [Dobutamine] | Sparingly |  |  |
| COc1cc2nc(N3CCN(C(=O)C4COc5ccccc5O4)CC3)nc(N)c2cc1OC (stereo not shown) [Doxazosin] | Slightly |  |  |
| CCCCCc1cc(O)c2c(c1)OC(C)(C)[C@@H]1CCC(C)=C[C@@H]21 [Dronabinol] |  | Insoluble | Bioavailability ([1]; in vivo): Low 10-20%) |
| CCOC(=O)[C@H](CCc1ccccc1)N[C@@H](C)C(=O)N1CCC[C@H]1C(=O)O [Enalapril] | Sparingly |  |  |
| CCc1cccc2c3c([nH]c12)C(CC)(CC(=O)O)OCC3 (stereo not shown) [Etodolac] | Insoluble |  |  |
| COc1cc([C@@H]2c3cc4c(cc3[C@@H](O[C@@H]3O[C@@H]5CO[C@@H](C)O[C@H]5[C@H](O)[C@H]3O)[C@H]3COC(=O)[C@H]23)OCO4)cc(OC)c1O [Etoposide] | Very Slightly |  |  |
| NC(N)=Nc1nc(CSCCC(N)=NS(N)(=O)=O)cs1 [Famotidine] | Slightly | Slightly soluble |  |
| CCOC(=O)C1=C(C)NC(C)=C(C(=O)OC)C1c1cccc(Cl)c1Cl (stereo not shown) [Felodipine] | Insoluble | Insoluble |  |
| CC(C)(C)NC(=O)[C@H]1CC[C@H]2[C@@H]3CC[C@H]4NC(=O)C=C[C@]4(C)[C@H]3CC[C@]12C [Finasteride] | Insoluble |  |  |
| OC(Cn1cncn1)(Cn1cncn1)c1ccc(F)cc1F [Fluconazole] | Slightly |  |  |
| OCCN1CCN(CCCN2c3ccccc3Sc3ccc(C(F)(F)F)cc32)CC1 [Fluphenazine] |  | Insoluble |  |

| SMILES | Solubility In Water [2] | Solubility In Water [3] | also measured |
| --- | --- | --- | --- |
| CC(C(=O)O)c1ccc(-c2ccccc2)c(F)c1 (stereo not shown) [Flurbiprofen] | Slightly |  |  |
| COCCCC/C(=N\OCCN)c1ccc(C(F)(F)F)cc1 [Fluvoxamine] | Sparingly |  |  |
| CC(C)Cc1ccc(C(C)C(=O)O)cc1 (stereo not shown) [Ibuprofen] | Insoluble |  |  |
| O=[N+]([O-])O[C@H]1CO[C@H]2[C@@H]1OC[C@H]2O[N+](=O)[O-] [Isosorbide dinitrate] | Sparingly | Sparingly soluble |  |
| CC1=C(/C=C/C(C)=C/C=C/C(C)=C\C(=O)O)C(C)(C)CCC1 [Isotretinoin] | Insoluble |  |  |
| COC(=O)C1=C(C)NC(C)=C(C(=O)OC(C)C)C1c1cccc2nonc12 (stereo not shown) [Isradipine] | Insoluble | Insoluble |  |
| CC(=O)N1CCN(c2ccc(OCC3COC(Cn4ccnc4)(c4ccc(Cl)cc4Cl)O3)cc2)CC1 (stereo not shown) [Ketoconazole] | Insoluble |  |  |
| Cc1c(OCC(F)(F)F)ccnc1C[S+]([O-])c1nc2ccccc2[nH]1 (stereo not shown) [Lansoprazole] | Insoluble |  |  |
| CC[C@H](C)C(=O)O[C@H]1C[C@@H](C)C=C2C=C[C@H](C)[C@H](CC[C@@H]3C[C@@H](O)CC(=O)O3)[C@H]21 [Lovastatin] | Insoluble | Insoluble |  |
| Cc1cccc(Nc2ccccc2C(=O)O)c1C [Mefenamic acid] | Slightly |  |  |
| C[C@@H]1C[C@H]2[C@@H]3CCC4=CC(=O)C=C[C@]4(C)[C@@]3(Cl)[C@@H](O)C[C@]2(C)[C@@]1(O)C(=O)CCl [Mometasone] | Insoluble |  |  |
| COc1ccc2cc(CCC(C)=O)ccc2c1 [Nabumetone] | Insoluble | Insoluble |  |
| CO[C@]12C[C@@H](COC(=O)c3cncc(Br)c3)CN(C)[C@@H]1Cc1cn(C)c3cccc2c13 [Nicergoline] | Insoluble |  |  |
| COc1ccc2[nH]c([S+]([O-])Cc3ncc(C)c(OC)c3C)nc2c1 (stereo not shown) [Omeprazole] | Slightly |  |  |
| CC(=O)O[C@H]1C(=O)[C@@]2(C)[C@H]([C@H](OC(=O)c3ccccc3)[C@]3(O)C[C@H](OC(=O)[C@H](O)[C@@H](NC(=O)c4ccccc4)c4ccccc4)C(C)=C1C3(C)C)[C@]1(OC(C)=O)CO[C@@H]1C[C@@H]2O [Paclitaxel] | Insoluble |  |  |
| OCCN1CCN(CCCN2c3ccccc3Sc3ccc(Cl)cc32)CC1 [Perphenazine] |  |  | Bioavailability ([1]; in words): Low |
| O=C1NC(=O)C(c2ccccc2)(c2ccccc2)N1 [Phenytoin] | Insoluble |  |  |
| CN1C(C(=O)Nc2ccccn2)=C(O)c2ccccc2S1(=O)=O [Piroxicam] | Sparingly |  |  |
| CCOC(=O)[C@H](CCc1ccccc1)N[C@@H](C)C(=O)N1Cc2ccccc2C[C@H]1C(=O)O [Quinapril] | Insoluble |  |  |
| CCOC(=O)[C@H](CCc1ccccc1)N[C@@H](C)C(=O)N1[C@H](C(=O)O)C[C@@H]2CCC[C@@H]21 [Ramipril] | Insoluble |  |  |
| CN[C@H]1CC[C@@H](c2ccc(Cl)c(Cl)c2)c2ccccc21 [Sertraline] | Slightly | Slightly soluble |  |
| CC(=O)S[C@@H]1CC2=CC(=O)CC[C@]2(C)[C@H]2CC[C@@]3(C)[C@@H](CC[C@@]34CCC(=O)O4)[C@H]12 [Spironolactone] |  | Insoluble |  |
| CC(C)(C)c1ccc(C(O)CCCN2CCC(C(O)(c3ccccc3)c3ccccc3)CC2)cc1 (stereo not shown) [Terfenadine] | Slightly |  |  |
| C[C@]12CC[C@H]3[C@@H](CCC4=CC(=O)CC[C@@]43C)[C@@H]1CC[C@@H]2O [Testosterone] |  | Insoluble | Bioavailability ([1]; in words): Low |
| Cc1ccc(-c2nc3ccc(C)cn3c2CC(=O)N(C)C)cc1 [Zolpidem] | Sparingly |  |  |
